Common to all, as to experiment: Off-target binding screen
One test has as its target T1, δ (DOR) (Homo sapiens, UniProt P41143).
T1 construct: Eurofins Pharma Discovery Services (contract assay)
The following applies: 1000 nM, read-out: % Inhibition of Control Specific Binding.

The target of the next test is T2, M2 (Homo sapiens, UniProt P08172).
T2 construct: Eurofins Pharma Discovery Services (contract assay)
T2 sequence (P08172 1-466): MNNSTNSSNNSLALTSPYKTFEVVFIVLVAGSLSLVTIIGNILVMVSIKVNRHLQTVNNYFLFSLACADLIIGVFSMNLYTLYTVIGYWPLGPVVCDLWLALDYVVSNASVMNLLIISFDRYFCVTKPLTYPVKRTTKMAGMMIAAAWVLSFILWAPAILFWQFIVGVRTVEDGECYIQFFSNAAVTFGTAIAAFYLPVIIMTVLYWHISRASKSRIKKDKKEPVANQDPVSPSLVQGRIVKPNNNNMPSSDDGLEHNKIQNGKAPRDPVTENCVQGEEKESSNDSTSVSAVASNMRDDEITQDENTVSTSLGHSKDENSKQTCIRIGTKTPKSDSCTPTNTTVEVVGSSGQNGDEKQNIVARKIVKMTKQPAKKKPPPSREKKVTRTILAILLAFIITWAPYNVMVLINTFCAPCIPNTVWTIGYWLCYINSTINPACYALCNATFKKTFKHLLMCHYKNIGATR
To be noted: 1000 nM, read-out: % Inhibition of Control Specific Binding.

The next test addresses T3, M1 (Homo sapiens, UniProt P11229).
T3 construct: Eurofins Pharma Discovery Services (contract assay)
T3 sequence (P11229 1-460): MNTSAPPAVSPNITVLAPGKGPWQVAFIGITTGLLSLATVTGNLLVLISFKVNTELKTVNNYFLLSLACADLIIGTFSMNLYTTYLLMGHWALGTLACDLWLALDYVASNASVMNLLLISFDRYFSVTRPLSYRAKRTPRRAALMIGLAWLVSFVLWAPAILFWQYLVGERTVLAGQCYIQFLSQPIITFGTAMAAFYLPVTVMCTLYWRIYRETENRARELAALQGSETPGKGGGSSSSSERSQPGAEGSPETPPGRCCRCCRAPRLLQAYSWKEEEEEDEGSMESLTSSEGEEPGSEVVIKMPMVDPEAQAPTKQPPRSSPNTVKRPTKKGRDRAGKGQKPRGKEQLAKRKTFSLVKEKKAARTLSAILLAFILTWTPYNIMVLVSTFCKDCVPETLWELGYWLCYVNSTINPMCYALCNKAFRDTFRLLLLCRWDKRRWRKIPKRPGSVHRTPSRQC
The following applies: 1000 nM, read-out: % Inhibition of Control Specific Binding.

The next test deals with T4, D4.4 (Homo sapiens, UniProt P21917).
T4 construct: Eurofins Pharma Discovery Services (contract assay)
T4 sequence (P21917 1-419): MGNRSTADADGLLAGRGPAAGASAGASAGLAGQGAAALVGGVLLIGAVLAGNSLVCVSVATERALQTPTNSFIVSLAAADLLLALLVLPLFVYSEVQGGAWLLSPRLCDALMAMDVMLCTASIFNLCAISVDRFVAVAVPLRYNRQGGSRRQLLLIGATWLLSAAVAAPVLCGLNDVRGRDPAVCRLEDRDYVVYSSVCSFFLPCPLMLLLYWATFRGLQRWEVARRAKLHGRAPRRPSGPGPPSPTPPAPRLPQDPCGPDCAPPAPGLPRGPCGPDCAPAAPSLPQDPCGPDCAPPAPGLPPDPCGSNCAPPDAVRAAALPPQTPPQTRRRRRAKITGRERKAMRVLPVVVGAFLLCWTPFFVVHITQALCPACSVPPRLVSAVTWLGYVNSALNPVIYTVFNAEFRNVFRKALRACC
To be noted: read-out: % Inhibition of Control Specific Binding; for inhibition at 0.001 µM: 1 nM; for inhibition at 0.01 µM: 10 nM; for inhibition at 0.1 µM: 100 nM; for inhibition at 1 µM: 1000 nM.

The next test deals with T5, 5-HT2C (Homo sapiens, UniProt P28335).
T5 construct: Eurofins Pharma Discovery Services (contract screen)
T5 sequence (P28335 33-458): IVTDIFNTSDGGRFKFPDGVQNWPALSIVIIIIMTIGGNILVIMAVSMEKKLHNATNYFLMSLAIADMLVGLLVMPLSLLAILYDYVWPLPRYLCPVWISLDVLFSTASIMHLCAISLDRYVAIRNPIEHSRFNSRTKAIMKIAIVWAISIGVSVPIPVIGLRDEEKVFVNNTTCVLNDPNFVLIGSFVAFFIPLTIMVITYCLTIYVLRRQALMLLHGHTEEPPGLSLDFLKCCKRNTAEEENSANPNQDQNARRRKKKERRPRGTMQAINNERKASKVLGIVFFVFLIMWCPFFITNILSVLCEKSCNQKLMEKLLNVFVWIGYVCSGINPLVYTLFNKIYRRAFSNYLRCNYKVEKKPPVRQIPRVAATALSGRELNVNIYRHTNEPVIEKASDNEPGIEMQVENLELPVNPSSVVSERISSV
The following applies: 1000 nM, read-out: % Inhibition of Control Specific Binding.

In a further test the target is T6, M3 (Homo sapiens, UniProt P20309).
T6 construct: Eurofins Pharma Discovery Services (contract assay)
T6 sequence (P20309 whole entry): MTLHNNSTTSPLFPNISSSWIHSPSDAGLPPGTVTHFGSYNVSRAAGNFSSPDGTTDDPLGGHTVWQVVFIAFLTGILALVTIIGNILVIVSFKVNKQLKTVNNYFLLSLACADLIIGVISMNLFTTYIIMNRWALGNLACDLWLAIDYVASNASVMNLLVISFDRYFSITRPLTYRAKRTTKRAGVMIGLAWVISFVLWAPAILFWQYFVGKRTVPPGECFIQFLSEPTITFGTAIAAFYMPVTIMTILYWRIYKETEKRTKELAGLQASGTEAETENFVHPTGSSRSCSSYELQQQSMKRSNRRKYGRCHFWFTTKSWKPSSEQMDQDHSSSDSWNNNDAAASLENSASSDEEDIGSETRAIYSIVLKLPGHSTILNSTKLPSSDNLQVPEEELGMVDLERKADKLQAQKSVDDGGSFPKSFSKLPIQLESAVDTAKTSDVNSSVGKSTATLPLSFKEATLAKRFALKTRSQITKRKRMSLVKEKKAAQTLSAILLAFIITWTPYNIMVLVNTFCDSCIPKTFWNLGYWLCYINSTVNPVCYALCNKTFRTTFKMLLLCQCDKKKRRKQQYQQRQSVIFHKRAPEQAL
To be noted: 1000 nM, read-out: % Inhibition of Control Specific Binding.

The next test deals with T7, M5 (Homo sapiens, UniProt P08912).
T7 construct: Eurofins Pharma Discovery Services (contract assay)
T7 sequence (P08912 1-532): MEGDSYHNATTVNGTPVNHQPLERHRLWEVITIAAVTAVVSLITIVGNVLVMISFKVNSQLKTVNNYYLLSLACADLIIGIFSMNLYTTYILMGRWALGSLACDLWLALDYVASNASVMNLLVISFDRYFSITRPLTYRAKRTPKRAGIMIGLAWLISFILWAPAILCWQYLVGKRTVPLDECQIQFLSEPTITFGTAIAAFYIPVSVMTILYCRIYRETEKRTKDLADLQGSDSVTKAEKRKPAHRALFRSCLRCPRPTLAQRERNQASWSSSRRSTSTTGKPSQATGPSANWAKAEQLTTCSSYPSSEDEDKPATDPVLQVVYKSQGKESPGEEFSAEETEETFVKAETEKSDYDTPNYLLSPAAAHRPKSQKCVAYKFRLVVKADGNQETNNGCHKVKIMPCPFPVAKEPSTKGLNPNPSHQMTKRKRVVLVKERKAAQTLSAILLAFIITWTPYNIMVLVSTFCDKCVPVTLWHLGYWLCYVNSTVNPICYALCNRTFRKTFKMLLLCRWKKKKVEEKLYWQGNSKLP
To be noted: read-out: % Inhibition of Control Specific Binding; for inhibition at 1 µM: 1000 nM.

The values that follow come from publication PMC7586344, “Discovery of Novel pERK1/2- or β-Arrestin-Preferring 5-HT1A Receptor-Biased Agonists: Diversified Therapeutic-like versus Side Effect Profile” (Journal of Medicinal Chemistry, 2020).

The structures appear in SMILES notation.

T1 sequence (P41143 whole entry): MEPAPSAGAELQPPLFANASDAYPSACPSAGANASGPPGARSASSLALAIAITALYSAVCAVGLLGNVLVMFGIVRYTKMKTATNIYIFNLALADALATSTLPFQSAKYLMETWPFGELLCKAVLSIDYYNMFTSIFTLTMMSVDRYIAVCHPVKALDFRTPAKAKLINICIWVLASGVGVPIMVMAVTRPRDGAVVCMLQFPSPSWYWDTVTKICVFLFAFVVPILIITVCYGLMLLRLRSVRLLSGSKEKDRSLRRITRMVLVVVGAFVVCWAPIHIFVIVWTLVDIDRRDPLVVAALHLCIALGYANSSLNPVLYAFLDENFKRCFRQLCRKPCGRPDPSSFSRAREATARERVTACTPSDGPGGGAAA

In the case of `O=C(c1ccc(F)c(Cl)c1)N1CCC(F)(CNCCOc2cccc3[nH]ccc23)CC1` [Compound 56, (4-(((2-((1H-Indol-4-yl)oxy)ethyl)amino)methyl)-4-fluoropiperidin-1-yl)(3-chloro-4-fluorophenyl)methanone], the inhibition – broadly, the change of the read-out against control, counted positive when it falls – at 1 µM is 0% on δ (DOR); -8% at M2; -10% on M1; 98% on D4.4; 6% on 5-HT2C; 1% on M3. Moreover, the inhibition at 1 µM at M5 turned out to be 54%. On D4.4, the inhibition at 0.001 µM was 9%. Moreover, the inhibition at 0.01 µM was 48% on D4.4 and 4% on M5 (10 nM). Further, the inhibition at 0.1 µM on D4.4 was 89%; at M5 (100 nM) it was -3%.

As for `CNc1ccccc1OCCNCC1(F)CCN(C(=O)c2ccc(F)c(Cl)c2)CC1` [Compound 44, (3-Chloro-4-fluorophenyl)(4-fluoro-4-(((2-(2-(methylamino)phenoxy)ethyl)amino)methyl)piperidin-1-yl)methanone], the inhibition at 1 µM is -5% at δ (DOR); -12% at M2; -6% on M1; 90% at D4.4; -9% on 5-HT2C; 9% on M3. Also, the inhibition at 1 µM on M5 is -1%. The inhibition at 0.1 µM at D4.4 stood at 51%.

As to `O=C(c1ccc(F)c(Cl)c1)N1CCC(F)(CNCCOc2ccccc2)CC1` [Compound 3], the inhibition at 1 µM at δ (DOR) is 3%; at M2 it was -20%; on M1 it was -2%; at D4.4, 92%; on 5-HT2C it was -15%; on M3 it was 1%. In addition, the inhibition at 1 µM on M5 was 3%. In addition, at D4.4, the inhibition at 0.001 µM is -1%. In addition, the inhibition at 0.01 µM on D4.4 was determined as 8%. Besides, the inhibition at 0.1 µM at D4.4 came out at 59%.
